In brackets after ≈: the same amount, converted by molar mass. Where a SMILES comes first, the peptide text is derived from it. Bridges are numbered along the chain shown (N, C = ends).
Legend:
S. aureus ATCC43300 [1] = assay: Time-kill curve (bacterial kinetics in vitro); assay type: cell-based, Staphylococcus aureus; details: 1 × 10^5 CFU/mL, 37°C, 250 rpm, colony counting
Description: The bactericidal efficiency of Ple-AB was evaluated by plotting a time-kill curve ([Zheng et al., 2021]). Single colonies of the S. aureus ATCC43300 were picked for overnight activation, and 1% were transferred and incubated at 37°C until the logarithmic growth phase. […] Samples of 100 uL of bacteria were taken at 0, 0.5, 1, 2, 4, 6, 8, 10, 12, and 24 h, diluted, and coated to count the number of single colonies and plot the time-killing curve.

S. aureus ATCC43300 [2] = assay: Stability in simulated (artificial) intestinal fluid read out as MIC; assay type: in vitro ADME, Staphylococcus aureus
Description: The stability of Ple-AB was assessed based on its antibacterial activity against S. aureus ATCC43300. Temperature stability was determined by incubation at 20, 40, 60, 80, and 100°C for 1 h ([Li et al., 2020]). The pH stability was determined by incubation in buffers with a pH of 2, 4, 6, 8, and 10 for 4 h ([Yang et al., 2017]). The peptides were incubated with different concentrations of metal ions, serum, artificial gastric fluid, and simulated intestinal fluid to assess their stability in the blood and intestines ([Lyu et al., 2019]). All the treatments were performed in triplicates.

CC[C@H](C)[C@@H]1NC(=O)[C@H](CO)NC(=O)[C@H](CCCCN)NC(=O)[C@@H]2CSSC[C@@H](C(=O)N[C@@H](Cc3ccc(O)cc3)C(=O)O)NC(=O)[C@H](CCCCN)NC(=O)[C@@H]3CSSC[C@H](NC(=O)[C@H](CCC(N)=O)NC(=O)[C@H](CCSC)NC(=O)[C@H](CCC(=O)O)NC(=O)[C@H](CC(=O)O)NC(=O)[C@H](Cc4c[nH]c5ccccc45)NC(=O)[C@@H]4CCCN4C(=O)[C@@H](NC(=O)CNC(=O)[C@H](Cc4ccccc4)NC(=O)CN)CSSC[C@H](NC(=O)[C@H](Cc4ccc(O)cc4)NC(=O)CNC(=O)CNC(=O)[C@H](CCCCN)NC(=O)[C@H](Cc4ccc(O)cc4)NC(=O)CNC(=O)[C@H](CCCCN)NC1=O)C(=O)N[C@@H](C)C(=O)N[C@@H](CCCCN)C(=O)NCC(=O)NCC(=O)N[C@@H](Cc1ccccc1)C(=O)N[C@@H](C(C)C)C(=O)N3)C(=O)N[C@@H](Cc1c[nH]cn1)C(=O)N[C@@H](CC(N)=O)C(=O)N[C@@H](Cc1c[nH]cn1)C(=O)N2 [Ple-AB] (H-GFGCPWDEMQCHNHCKSIKGYKGGYCAKGGFVCKCY-OH; disulfide 4-26, 11-33, 15-35; N-terminus and C-terminus assumed)
Time to kill all the strains (S. aureus ATCC43300 [1]; 1× MIC): ≤ 4 h | Time to kill all the strains (S. aureus ATCC43300 [1]; 2× MIC): ≤ 4 h | Time to 99% bactericidal activity (S. aureus ATCC43300 [1]; 4× MIC): ≤ 2 h | MIC after Artificial Intestinal Fluid (S. aureus ATCC43300 [2]; Artificial Intestinal Fluid (trypsin), 1 h, read-out MIC, triplicates): 32 µg/mL (≈ 8 µM) | Remaining share of initial activity after simulated intestinal fluids (S. aureus ATCC43300 [2]; simulated intestinal fluids (trypsin), 1 h (lasted for 2 h), from MIC): approximately 50%

— publication PMC10771296, “Plectasin: from evolution to truncation, expression, and better druggability” (Frontiers in Microbiology, 2023)
